The EC50 is the concentration giving half of the maximal effect. Read a low EC50 as an effect from little substance. The IC50 is the concentration that gives 50% inhibition.

One experiment concerns the target T1, 6His(GST)RORgamma-LBD (Homo sapiens, UniProt P51449).
T1 construct: the applied RORgamma-LBD contains a 6-His and GST tag; GST (N); made in house; host or cells: baculovirus-infected Sf-21 insect cells
T1 sequence (P51449 269-508 limits assumed): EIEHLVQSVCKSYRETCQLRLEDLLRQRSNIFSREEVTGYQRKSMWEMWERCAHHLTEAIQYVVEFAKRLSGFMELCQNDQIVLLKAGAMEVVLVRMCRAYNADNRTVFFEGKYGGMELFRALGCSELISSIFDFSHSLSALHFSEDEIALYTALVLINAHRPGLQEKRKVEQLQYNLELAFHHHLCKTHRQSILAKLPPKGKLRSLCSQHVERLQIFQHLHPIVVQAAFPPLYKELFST
In words: TR-FRET assay (Protocol A), RORgamma-LBD / SRC1_2 co-activator peptide interaction. The experiment is classed as biochemical. As to conditions: SRC1_2 peptide 0.1 μM, RORgamma-LBD 10 nM, overnight incubation at 4° C. The source says: (§1) Activation of RORgammaT activity can be measured using e.g. biochemical TR-FRET assay. In such an assay, interaction of cofactor-derived peptides with human RORgammaT-Ligand Binding Domain (LBD) can be measured.
(§2) To identify novel antagonists of RORgammaT, an assay was developed which employs the interaction of RORgammaT with its co-activator peptide SRC1_2. […] The assay was run following three slightly different protocols, i.e. Protocol A, Protocol B, and Protocol C, which are described below.
TR-FRET Assay (Protocol A)
The 6His(GST)RORgamma-LBD was expressed and purified from baculovirus infected Sf-21 insect cells (Bac-to-BAC, Invitrogen) and purified using glutathione sepharose chromatography (GE healthcare). Biotin and His function as anchoring points for streptavidin-allophycocyanin (Strep-APC, Perkin Elmer, C130-100) and anti-His-Europium Cryptate (Perkin Elmer, AD0111), respectively. Since energy transfer between the streptavidin and His-coupled labels APC and europium cryptate can only take place when these labels are in close proximity, measurement of energy transfer in a mixture of biotinylated peptide, His-GR-LBD, streptavidin-APC and anti-His-Europium Cryptate will be indicative for RORy-LBD/peptide binding. […] Changes in peptide binding caused by dose-curves of compounds added to the reaction mixture (DMSO concentration 0.1%), can likewise be monitored.
The compound `O=C(c1c(Cl)cccc1Cl)n1nc(-c2ccc(-c3nnn[nH]3)cc2)c2ccccc21` [Example 22, (3-(4-(1H-tetrazol-5-yl)phenyl)-1H-indazol-1-yl)(2,6-dichlorophenyl)methanone] gave an EC50 of 5010 nM.

`O=C(O)c1ccc(-c2nn(S(=O)(=O)c3cccc(Cl)c3Cl)c3ccccc23)cc1` [Example 13E, 4-(1-(2,3-dichlorophenylsulfonyl)-1H-indazol-3-yl)benzoic acid]: it took 26.3 nM to reach a half-maximal effect (EC50).

For the compound `COC(=O)c1ccccc1C(=O)n1nc(-c2ccc(C(=O)O)cc2)c2ccccc21` [Example 11C, 4-(1-(2-(methoxycarbonyl)benzoyl)-1H-indazol-3-yl)benzoic acid], the EC50 is 513 nM.

Compound `O=C(O)c1ccc(-c2nn(C(=O)c3ccccc3Br)c3ccccc23)cc1` [Example 11B, 4-(1-(2-bromobenzoyl)-1H-indazol-3-yl)benzoic acid] gave an EC50 of 44.7 nM.

In turn, `O=C(O)c1ccc(-c2nn(C(=O)c3c(Cl)cc(Cl)cc3Cl)c3ccccc23)cc1` [Example 11H, 4-(1-(2,4,6-trichlorobenzoyl)-1H-indazol-3-yl)benzoic acid] showed an EC50 of 70.8 nM.

Consider `O=C(O)c1ccc(-c2cn(C(=O)c3c(Cl)cccc3Cl)c3cccnc23)cc1` [Example 7, 4-(1-(2,6-dichlorobenzoyl)-1H-pyrrolo[3,2-b]pyridin-3-yl)benzoic acid], for which a half-maximal effect (EC50) was put at 14.1 nM.

Turning to `O=C(O)c1ccc(-c2nn(C(=O)c3c(Cl)cccc3Cl)c3c(F)cccc23)cc1` [Example 3, 4-(1-(2,6-dichlorobenzoyl)-7-fluoro-1H-indazol-3-yl)benzoic acid], the EC50 was 18.6 nM.

`O=C(O)c1ccc(-c2nn(C(=O)c3ccccc3Cl)c3ccccc23)cc1` [Example 11L, 4-(1-(2-chlorobenzoyl)-1H-indazol-3-yl)benzoic acid] gave an EC50 of 26.3 nM.

With `O=C(O)c1ccc(-c2nn(S(=O)(=O)c3ccc(Cl)c(Cl)c3Cl)c3ccccc23)cc1` [Example 13F, 4-(1-(2,3,4-trichlorophenylsulfonyl)-1H-indazol-3-yl)benzoic acid], a half-maximal response (EC50) required 166 nM.

As to `O=S(=O)(c1cccc(Cl)c1)n1nc(-c2ccc(-c3nnn[nH]3)cc2)c2ccccc21` [Example 20, 3-(4-(1H-tetrazol-5-yl)phenyl)-1-(3-chlorophenylsulfonyl)-1H-indazole], the EC50 was 3550 nM.

Take `Cc1cc(C)cc(S(=O)(=O)n2nc(-c3ccc(C(=O)O)cc3F)c3ccccc32)c1` [Example 17, 4-(1-(3,5-dimethylphenylsulfonyl)-1H-indazol-3-yl)-3-fluorobenzoic acid]: the EC50 is 1230 nM.

For `N#Cc1ccccc1S(=O)(=O)n1nc(-c2ccc(C(=O)O)cc2)c2ccccc21` [Example 14, 4-(1-(2-cyanophenylsulfonyl)-1H-indazol-3-yl)benzoic acid], the EC50 was 1950 nM.

`O=C(O)c1ccc(-c2nn(S(=O)(=O)c3ccccc3OC(F)(F)F)c3ccccc23)cc1` [Example 15A, 4-(1-(2-(trifluoromethoxy)phenylsulfonyl)-1H-indazol-3-yl)benzoic acid] had an EC50 of 275 nM.

As to `COc1cccc(F)c1C(=O)n1nc(-c2ccc(C(=O)O)cc2)c2ccccc21` [Example 11G, 4-(1-(2-fluoro-6-methoxybenzoyl)-1H-indazol-3-yl)benzoic acid], the EC50 was 60.3 nM.

`Cc1cc(C)cc(S(=O)(=O)n2nc(-c3ccc(C(=O)O)c(C(F)(F)F)c3)c3ccccc32)c1` [Example 18, 4-(1-(3,5-dimethylphenylsulfonyl)-1H-indazol-3-yl)-2-(trifluoromethyl)benzoic acid] had an EC50 of 3310 nM.

In the case of `Cc1noc(C)c1S(=O)(=O)n1nc(-c2ccc(-c3nnn[nH]3)cc2)c2ccccc21` [Example 21D, 4-(3-(4-(1H-tetrazol-5-yl)phenyl)-1H-indazol-1-ylsulfonyl)-3,5-dimethylisoxazole], the concentration for a half-maximal effect (EC50) was 741 nM.

Turning to `Cc1ccc(C#N)c(S(=O)(=O)n2nc(-c3ccc(C(=O)O)cc3)c3ccccc32)c1` [Example 15E, 4-(1-(2-cyano-5-methylphenylsulfonyl)-1H-indazol-3-yl)benzoic acid], the EC50 is 513 nM.

On to `O=C(c1cccc(Cl)c1Cl)n1nc(-c2ccc(-c3nnn[nH]3)cc2)c2ccccc21` [Example 23, (3-(4-(1H-tetrazol-5-yl)phenyl)-1H-indazol-1-yl)(2,3-dichlorophenyl)methanone], for which the EC50 was 1020 nM.

With `O=C(O)c1ccc(-c2nn(C(=O)c3c(Cl)cccc3Cl)c3ccncc23)cc1` [Example 8, 4-(1-(2,6-dichlorobenzoyl)-1H-pyrazolo[4,3-c]pyridin-3-yl)benzoic acid], the EC50 was 4900 nM.

`O=C(O)c1ccc(-c2nn(C(=O)c3c(Cl)cncc3Cl)c3ccccc23)cc1` [Example 11A, 4-(1-(3,5-dichloroisonicotinoyl)-1H-indazol-3-yl)benzoic acid] gave an EC50 of 339 nM.

Another experiment deals with T2, HIS-tagged RORγ-LBD (Homo sapiens, UniProt P51449).
T2 construct: HIS-tagged RORγ-LBD was recombinantly expressed in SF9 cells using a baculovirus expression system; made in house; host or cells: SF9 cells, baculovirus; crude lysate used
T2 sequence (P51449 269-508 limits assumed): T1 sequence (P51449 269-508 limits assumed)
In words: TR-FRET assay (Protocol B), RORγ-LBD lysate / biotinylated SRC1-2 LXXLL peptide. The experiment is classed as biochemical. As to conditions: unpurified RORγ-LBD lysate ~10 nM, SRC1-2 peptide 450 nM.
From the text: as §1, §2
TR-Fret Assay (Protocol B)
HIS-tagged RORγ-LBD was recombinantly expressed in SF9 cells using a baculovirus expression system. The protein was not purified. Cells were lysed and the lysate was used as a source for RORγ-LBD for the assay. A 1:80 dilution of RORγ-LBD lysate in assay buffer (25 mM HEPES pH 7.0, 100 mM NaCl, 0.01% Tween, 0.1% BSA) was prepared and 5 μL was added to each well (RORγ-LBD final concentration ˜10 nM). Control wells received lysate from SF9 cells not expressing RORγ-LBD.
Compounds to be tested were diluted to 100× final test concentration in DMSO and further diluted to 4× final test concentration using assay buffer to provide the test compound mixture. An aliquot (5 μL) of the test compound mixture was added to each well.
On the technique in general: TR-FRET usually uses a lanthanide donor and a delayed reading to cut background.
Consider `CN(C)C(=O)c1ccc2c(-c3ccc(C(=O)O)cc3)nn(C(=O)c3c(Cl)cccc3C(F)(F)F)c2c1` [Example 25B, 4-(1-(2-chloro-6-(trifluoromethyl)benzoyl)-6-(dimethyl-carbamoyl)-1H-indazol-3-yl)benzoic acid], for which the IC50 was less than 50 nM.

Consider `O=C(O)c1cc(-c2nn(C(=O)c3c(Cl)cccc3C(F)(F)F)c3cccc(F)c23)ccc1O` [Example 24Z, 5-(1-(2-chloro-6-(trifluoromethyl)-benzoyl)-4-fluoro-1H-indazol-3-yl)-2-hydroxybenzoic acid], for which the IC50 is greater than 10000 nM.

`COc1cc(C(=O)O)ccc1-c1nn(C(=O)c2c(Cl)cccc2C(F)(F)F)c2cccc(F)c12` [Example 24Q, 4-(1-(2-chloro-6-(trifluoromethyl)-benzoyl)-4-fluoro-1H-indazol-3-yl)-3-methoxybenzoic acid] displayed an IC50 of 50 to 500 nM.

Take `O=C(O)c1ccc(-c2nn(C(=O)c3c(Cl)cccc3C(F)(F)F)c3ccccc23)cc1F` [Example 24AQ, sodium 4-(1-(2-chloro-6-(trifluoromethyl)-benzoyl)-1H-indazol-3-yl)-2-fluoro benzoate]: the half-inhibitory concentration (IC50) was less than 50 nM.

`CC(C)c1cc(-c2nn(C(=O)c3c(Cl)cccc3C(F)(F)F)c3ccccc23)ccc1C(=O)O` [Example 24AP, 4-(1-(2-chloro-6-(trifluoromethyl)-benzoyl)-1H-indazol-3-yl)-2-isopropylbenzoic acid] came in with an IC50 of 500 to 10000 nM.

In turn, `O=C(O)c1ccc(-c2nn(C(=O)c3c(Cl)cccc3C(F)(F)F)c3cc(O)cc(F)c23)c(F)c1` [Example 24BD, 4-(1-(2-chloro-6-(trifluoromethyl)-benzoyl)-4-fluoro-6-hydroxy-1H-indazol-3-yl)-3-fluorobenzoic acid] displayed an IC50 of 500 to 10000 nM.

As for `NCc1ccc2c(-c3ccc(C(=O)O)cc3F)nn(C(=O)c3c(Cl)cccc3C(F)(F)F)c2c1` [Example 27B, 4-(6-(aminomethyl)-1-(2-chloro-6-(trifluoromethyl)benzoyl)-1H-indazol-3-yl)-3-fluorobenzoic acid], the IC50 is less than 50 nM.

Consider `CN(CCO)C(=O)c1ccc2c(-c3ccc(C(=O)O)cc3F)nn(C(=O)c3c(Cl)cccc3C(F)(F)F)c2c1` [Example 25R, 4-(1-(2-chloro-6-(trifluoromethyl)benzoyl)-6-((2-hydroxyethyl) (methyl)carbamoyl)-1H-indazol-3-yl)-3-fluorobenzoic acid], for which the IC50 is less than 50 nM.

`COc1cccc(F)c1C(=O)n1nc(-c2ccc(C(=O)O)cc2F)c2ncccc21` [Example 24AN, 3-fluoro-4-(1-(2-fluoro-6-methoxybenzoyl)-1H-pyrazolo[4,3-b]pyridin-3-yl)benzoic acid] gave an IC50 of less than 50 nM.

Compound `O=C(O)c1ccc(-c2nn(C(=O)c3c(Cl)cccc3C(F)(F)F)c3cccc(F)c23)c(O)c1` [Example 26E, 4-(1-(2-chloro-6-(trifluoromethyl)benzoyl)-4-fluoro-1H-indazol-3-yl)-3-hydroxybenzoic acid] had an IC50 of less than 50 nM.

The compound `COc1cccc(F)c1C(=O)n1nc(-c2ccc(C(=O)O)cc2F)c2c(F)cccc21` [Example 24AA, 3-fluoro-4-(4-fluoro-1-(2-fluoro-6-methoxybenzoyl)-1H-indazol-3-yl)benzoic acid] displayed an IC50 of less than 50 nM.

These data come from patent publication US9884043B2, “RORgammaT inhibitors” (Merck Sharp & Dohme Corp., priority 2011, dated 2018).
